Measured values taken from patent US6432413B1, “Functional improvements in Fahr disease” (Wayne State University, priority 1998, dated 2002).

Columns and labels:
Type in all cases: in vivo, human
[1] = system: patient with Fahr disease; test: Previous drug treatments of the same Fahr disease patient; details: before the study
From the text: Prior to initiating and throughout the study, they were maintained on the same doses of baclofen, pergolide, lorazepam, naproxen, diltiazem, probanthiline bromide, and hyoscyamine sulfate. They were placed on isosorbide dinitrate 2 months into the study for ischemic heart disease.

[2] = Side effects during treatment of the Fahr disease patient; details: 15 mg/kg once daily
Description: (§1) After obtaining baseline measurements and informed consent, the patient was begun on 15 mg/kg of disodium etidronate given once daily for two 6 month periods, separated by a 6 month period off of the drug, which was carried out as an internal control and to allow for normal bone mineralization. Serial neurologic examinations were performed by the same physician, and included three quantitative measurements: counting from 1-20, counting from 20-1, and walking 15 feet and back. Instructions were given with the same amount of encouragement for each of the serial measurements. Duplicate measures of counting 1-20 and walking taken two weeks apart were averaged to produce baseline values. There was little variation between the duplicate measures. Baseline and follow-up videotapes of the neurologic exam and CAT scans, to quantify the amount of cerebral calcification, were obtained in a uniform manner.
For example, they could button their shirts, which they could not do previously.

[3] = system: patient with familial, idiopathic cerebral calcinosis of the basal ganglia (Fahr disease); test: Treatment of a patient with Fahr disease: serial neurologic examinations, timed speech and gait, Blessed Dementia Scale
From the text: FIG. 2 is a series of graphs showing the effect of treatment on speech and gait. Timed measurements of speech (counting from 1-20 or 20-1) and gait (walking 15 feet and back) were made during two treatment cycles with disodium etidronate. The start and stop times indicate the times at which the medication was begun and discontinued, respectively. Each zero time point for counting 1-20 and walking 15 feet and back represents an average of 2 separate measurements, taken 2 weeks apart.
The patient is a person with hypertension and osteoarthritis who presented with transient right hemiparesis and dysarthria. […] Their major neurologic disabilities prior to treatment were slowness of gait and speech, rigidity, spasticity, cerebellar ataxia, dystonia, and dysphagia. They scored 6 points out of a possible 37 points on the right side of the Blessed Dementia Scale, which measures memory and concentration (6). A score of 0 points is without error. They had been having frequent emotional outbursts and inappropriate hypersexuality.
as §1

cerebral calcification = test: Quantitation of cerebral calcification by serial CAT scans
From the text: FIG. 1 is a series of axial CAT scans and 3-dimensional reconstructions of basal ganglia calcification. Panels A-D show the extent of cerebral calcification on axial CAT scan images showing involvement of the basal ganglia, thalamus, and cerebellum. Panels E-H are 3-dimensional reconstructions of the basal ganglia, thalami, and pineal gland in different projections. The patient is directly facing the viewer in Panel E, turning to the left by 30 degrees in Panel F, and by 60 degrees in Panel G. Panel H is a projection looking from above and behind the patient, in the same orientation as the CAT scans described above. […]
FIG. 3 is a graph showing quantitation of cerebral calcification. […]
Quantitative measurements of cerebral calcification were obtained using contiguous regions of calcification, defined as those containing pixels greater than 50 Hounsfield units, on each 3 mm coronal image. […]
After obtaining baseline measurements and informed consent, the patient was begun on 15 mg/kg of disodium etidronate given once daily for two 6 month periods, separated by a 6 month period off of the drug, which was carried out as an internal control and to allow for normal bone mineralization. Serial neurologic examinations were performed by the same physician, and included three quantitative measurements: counting from 1-20, counting from 20-1, and walking 15 feet and back. […]

[4] = second six month course of treatment

NCC(CC(=O)O)c1ccc(Cl)cc1 (centres unmarked) [baclofen]
improvement with previous drug treatment [1]: minimal improvement

CC(O)(P(=O)(O)O)P(=O)(O)O [disodium etidronate]
side effects [2]: no side effects from the medication, except for transient elevations in serum phosphate
gait and speech after stopping the medication ([3]; 6 month period off of the drug): significant deterioration in their gait, but little loss in the gains made with their speech
speech, attention span, emotional outbursts and inappropriate sexual behavior as felt by the patient's family ([3]; after one month on 15 mg/kg once daily): their speech had become clearer, their attention span improved, and their emotional outbursts and inappropriate sexual behavior ceased
bradykinesia and emotional lability ([3]; after treatment): clearly improved
spasticity, cerebellar ataxia, and dystonia ([3]; after treatment): unchanged
Blessed Dementia Scale score ([3]; eighteen months after beginning treatment, previous score 6, 0 points is without error): 2
gait and fine motor skills ([3]; first treatment period, 15 mg/kg once daily): His gait also improved, together with fine motor skills
increase in the speed of speech and gait (counting 1-20, 20-1, walking 15 feet and back) ([3]; over the first six months of treatment): two-fold increase
counting from 1-20 [3, 4]: improvement
counting from 20-1 [3, 4]: some deterioration
gait [3, 4]: again improved
speech [3, 4]: did not change appreciably
other measurements of the speed of motor movement (rapid finger tapping and knee patting) ([3]; videotape before medication vs end of first six month treatment): improved considerably
speech (rate and clarity) ([3]; within four months of treatment, 15 mg/kg once daily): their speech became more rapid and clear
shape and size of the cerebral calcification, qualitative comparison of CAT scans and 3-dimensional reconstructions (cerebral calcification; after treatment): did not demonstrate any change
brain calcium content, quantitative measurements from serial CAT scans (density x area) (cerebral calcification; before treatment vs after first (6 months) and second (18 months) treatment periods): did not show any reduction in brain calcium content, but perhaps a small increase

O=C1Nc2ccc(Cl)cc2C(c2ccccc2Cl)=NC1O (centres unmarked) [lorazepam]
improvement with previous drug treatment [1]: minimal improvement

CCCN1C[C@H](CSC)C[C@@H]2c3cccc4[nH]cc(c34)C[C@H]21 [pergolide]
improvement with previous drug treatment [1]: minimal improvement

carbidopa-levodopa
improvement with previous drug treatment [1]: minimal improvement
